How the values were obtained:
Adenosine receptor A2b [1] = target: T1, Adenosine receptor A2b (Homo sapiens, UniProt P29275); assay: Receptor stimulated adenylyl cyclase activity in CHO cells expressing human recombinant Adenosine A2B receptor; format: functional, cell-based
T1 sequence (P29275 whole entry): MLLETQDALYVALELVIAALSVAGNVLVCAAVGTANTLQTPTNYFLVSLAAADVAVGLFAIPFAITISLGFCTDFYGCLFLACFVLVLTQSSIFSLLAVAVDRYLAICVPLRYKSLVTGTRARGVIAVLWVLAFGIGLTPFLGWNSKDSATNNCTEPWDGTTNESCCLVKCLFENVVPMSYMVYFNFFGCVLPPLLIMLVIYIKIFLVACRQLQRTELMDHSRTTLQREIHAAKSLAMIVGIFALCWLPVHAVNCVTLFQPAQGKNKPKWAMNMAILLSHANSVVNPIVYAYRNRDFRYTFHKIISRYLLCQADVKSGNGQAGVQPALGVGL

Adenosine receptor A1 = target: T2, Adenosine receptor A1 (Homo sapiens, UniProt P30542); assay: Displacement of [3H]-CCPA from CHO cells expressing human recombinant Adenosine A1 receptor; format: cell-based
T2 sequence (P30542 whole entry): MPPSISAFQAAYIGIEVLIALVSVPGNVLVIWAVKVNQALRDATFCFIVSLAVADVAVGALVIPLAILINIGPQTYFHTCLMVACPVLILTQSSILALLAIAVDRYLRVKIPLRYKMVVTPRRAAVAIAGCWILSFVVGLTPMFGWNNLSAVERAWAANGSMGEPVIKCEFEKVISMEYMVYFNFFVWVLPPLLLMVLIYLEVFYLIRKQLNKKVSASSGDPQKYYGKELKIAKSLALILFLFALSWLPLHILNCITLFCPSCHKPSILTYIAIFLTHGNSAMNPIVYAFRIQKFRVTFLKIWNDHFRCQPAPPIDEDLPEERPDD

Adenosine receptor A2a = Adenosine receptor A2a (Homo sapiens, UniProt P29274); assay: [3H]NECA […] binding in CHO cells expressing human recombinant A2A adenosine receptor; format: cell-based
Sequence of Adenosine receptor A2a (P29274 whole entry): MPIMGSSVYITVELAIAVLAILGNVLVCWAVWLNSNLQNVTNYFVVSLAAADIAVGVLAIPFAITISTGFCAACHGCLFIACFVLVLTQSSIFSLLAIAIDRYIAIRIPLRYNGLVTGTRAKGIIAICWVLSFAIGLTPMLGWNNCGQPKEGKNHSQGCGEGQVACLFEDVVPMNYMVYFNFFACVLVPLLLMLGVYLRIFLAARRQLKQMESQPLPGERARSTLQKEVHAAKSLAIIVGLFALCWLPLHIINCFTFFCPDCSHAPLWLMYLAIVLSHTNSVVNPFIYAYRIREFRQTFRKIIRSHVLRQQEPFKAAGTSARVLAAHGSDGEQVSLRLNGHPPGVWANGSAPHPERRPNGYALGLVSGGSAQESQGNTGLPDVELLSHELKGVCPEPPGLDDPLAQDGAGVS

Adenosine receptor A3 = target: T3, Adenosine receptor A3 (Homo sapiens, UniProt P0DMS8); assay: [3H]NECA […] binding in CHO cells expressing human Adenosine A3 receptor; format: cell-based
T3 sequence (P0DMS8 whole entry): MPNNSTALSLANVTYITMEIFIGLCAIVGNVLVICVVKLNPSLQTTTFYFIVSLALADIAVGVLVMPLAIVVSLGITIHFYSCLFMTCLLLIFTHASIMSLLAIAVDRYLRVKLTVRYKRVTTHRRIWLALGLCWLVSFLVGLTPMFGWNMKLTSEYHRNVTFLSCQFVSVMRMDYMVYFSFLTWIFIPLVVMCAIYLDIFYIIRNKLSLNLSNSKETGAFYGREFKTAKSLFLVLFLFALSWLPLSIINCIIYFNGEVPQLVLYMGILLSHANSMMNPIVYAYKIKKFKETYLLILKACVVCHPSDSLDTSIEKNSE

[2] = target: T4, Adenosine receptor A3 (Homo sapiens) (UniProt P0DMS8); assay: Stimulation of [35S]GTP gamma-S binding in CHO cell membranes expressing human A3 receptor at 983 uM; format: functional
T4 sequence (whole entry): T3 sequence (P0DMS8 whole entry)

[3] = target: T4, Adenosine receptor A3 (Homo sapiens); details: CHO, 1 uM
Description: Inhibition of [35S]GTP gamma-S binding to CHO cell membranes expressing human A3 receptor at 1 uM

[4] = target: T4, Adenosine receptor A3 (Homo sapiens); assay: Stimulation of [35S]GTP gamma-S binding in CHO cell membranes expressing human A3 receptor at 78.8 uM; format: functional
Adenosine receptor A2b [5] = target: T1, Adenosine receptor A2b; assay: Antagonistic activity against Adenosine A2B receptor; format: functional

Row | SMILES | EC50 (Adenosine receptor A2b [1]) | Ki (Adenosine receptor A1) | Ki (Adenosine receptor A2a) | Ki (Adenosine receptor A3) | Agonist effect [2] | Agonist effect [3] | Agonist effect [4] | IC50 (Adenosine receptor A2b [5])
1 | Nc1ncnc2c1nc(/C=C/C(=O)c1ccccc1)n2[C@@H]1O[C@H](CO)[C@@H](O)[C@H]1O | > 100 µM | > 100 µM | 46.6 µM | 9.83 µM | 1.9% | – | – | –
2 | CCCCC#Cc1nc2c(N)ncnc2n1[C@@H]1O[C@H](CO)C(O)C1O (single isomer, unassigned) | > 100 µM | > 100 µM | > 100 µM | – | – | – | – | –
3 | CCNC(=O)[C@H]1O[C@@H](n2cnc3c(N)ncnc32)[C@H](O)[C@@H]1O | – | – | – | – | – | 100% | – | –
4 | Nc1ncnc2c1nc(C#Cc1ccccc1)n2[C@@H]1O[C@H](CO)C(O)C1O (single isomer, unassigned) | > 100 µM | > 100 µM | > 100 µM | 0.79 µM | – | – | 0.2% | –
5 | CCn1c(C#Cc2ccccc2)nc2c(N)ncnc21 | – | – | 0.6 µM | 0.086 µM | – | – | – | ≥ 100 µM
